The nature of the assay: Inhibition of calcium channel in pig carotid artery assessed as relaxation of KCl-induced vascular smooth muscle contraction.

We go through 1 compound from ChEMBL document CHEMBL2040829, “Highly regioselective synthesis of N-3 organophosphorous derivatives of 3,4-dihydropyrimidin-2(1H)-ones and their calcium channel binding studies” (Eur J Med Chem, 2012).

A word on the IC50: it is the concentration at which inhibition is half-maximal.

For `COC(=O)C1=C(C)NC(C)=C(C(=O)OC)C1c1ccccc1[N+](=O)[O-]` [NIFEDIPINE], the IC50 was 10 nM.
